Reference: patent US10688082B2, “Aminopyrazine compounds with A2A antagonist properties” (Merck Sharp & Dohme Corp., priority 2015, dated 2020)

The molecules below were run against T1, human A2a receptor (Homo sapiens, UniProt P29274) (assay: Competition binding assay using Scintillation Proximity technology (A2a activity)). Conditions: membranes from HEK293 cells expressing the human A2a receptor; 0.5 nM tritiated ligand; Cheng-Prusoff.
T1 construct: purchased Perkin-Elmer RBHA2AM400UA; host or cells: HEK293 cells (membranes)
T1 sequence (P29274 whole entry): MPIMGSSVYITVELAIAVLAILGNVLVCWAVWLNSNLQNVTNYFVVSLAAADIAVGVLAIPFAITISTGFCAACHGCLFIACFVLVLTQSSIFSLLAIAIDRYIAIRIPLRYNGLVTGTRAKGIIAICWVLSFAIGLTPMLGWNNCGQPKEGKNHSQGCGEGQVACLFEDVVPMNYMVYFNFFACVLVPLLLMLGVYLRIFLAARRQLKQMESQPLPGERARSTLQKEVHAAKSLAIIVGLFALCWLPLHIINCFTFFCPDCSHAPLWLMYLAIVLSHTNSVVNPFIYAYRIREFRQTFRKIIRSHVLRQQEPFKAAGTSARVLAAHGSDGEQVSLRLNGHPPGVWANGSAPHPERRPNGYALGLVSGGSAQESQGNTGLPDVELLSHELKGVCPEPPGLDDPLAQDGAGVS
Protocol: Binding affinities of compounds of the invention for the human A2a receptor were determined in a competition binding assay using Scintillation Proximity technology. Thus, […] from HEK293 cells expressing the human A2a receptor were incubated with a compound of the invention at concentrations ranging from 3000 nM to 0.15 nM in a reaction mixture containing also 0.5 nM of a tritiated form of 5-amino-7-[2-phenethyl]-2-(furan-2-yl)-7H-pyrazolo[4,3-e][1,2,4]triazolo[1,5-c]pyrimidine (the tritiated compound) and 100 μg of wheat germ agglutin-coated yttrium silicate SPA beads for one hour at room temperature with agitation. The beads were then allowed to settle to the bottom of the wells for 1 hr, after which the membrane-associated radioactivity was determined by scintillation counting in a TopCount microplate reader. Ki values were determined using the Cheng-Prusoff equation.
HEK293 cells expressing the human, rat, dog or monkey adenosine 2a receptor (Purchased from Perkin-Elmer # RBHA2AM400UA).
The Tritiated compound was prepared according to published methods.
Wheat germ agglutinin-coated yttrium silicate SPA beads (GE Healthcare # RPNQ0023). Dilute to 25 mg/ml in assay buffer.
Assay Buffer was prepared using Dulbecco's calcium and magnesium free phosphate buffered saline+10 mM MgCl2
Adenosine deaminase from calf intestine, 10 mg/2 ml (Roche #10 102 105 001).
A2a antagonist standard (9-chloro-1-(2-furanyl)-[1,2,4]triazolo1,5-c]quinazolin-5-amine from Tocris Bioscience)
Make eight 1:3 serial dilutions in 100% DMSO from a 3 mM compound stock
Transfer 50 nl of compound into a 384-well OptiPlate (Perkin Elmer).
Typically, final concentrations of compound used in the assay ranged from 3000 nM to 0.152 nM.
Dilute a solution of the Tritiated compound to 1.25 nM in assay buffer. This is a 2.5× solution. The final concentration in the assay is 0.5 nM. Calculate the concentration by counting two 5 μl aliquots.
Use 0.25 ug of membrane/well. Dilute membranes to 9.7 μg/ml in assay buffer. Treat with 20 ug/ml adenosine deaminase (ADA) for 15 minutes at room temperature to degrade endogenous adenosine.
Use 100 μg/well wheat germ agglutinin-coated yttrium silicate SPA beads.
Mix ADA-treated membranes and SPA beads together for 30 min prior to assay.
To the Perkin-Elmer Optiplate-384 containing the compound titration add 20 μl of 2.5× solution of the Tritiated compound and 30 μl of the membrane-bead mixture. Incubate for one hour at room temperature with agitation.
Include total binding (assay buffer+1% DMSO) and non-specific binding (CGS15943, 1 μM) wells.
Allow the beads to settle for one hour.
A curve fitting program (i.e., Prism, Activity Base, Chemcart) is used to determine the EC50. The Ki value is calculated using the Cheng-Prusoff equation. K i=EC50/(1+(radioligand concentration/Kd))
Work on `COc1cccc2c1nc(N)n1nc(Cc3cccc4ccc(C)nc34)cc21` [Ex-60, 7-methoxy-2-((2-methylquinolin-8-yl)methyl)pyrazolo[1,5-c]quinazolin-5-amine] yielded a Ki of 22 nM. `COc1cccc2c1nc(N)n1nc(Cc3cccc(C#N)c3F)cc21` [Ex-61, 3-((5-amino-7-methoxypyrazolo[1,5-c]quinazolin-2-yl)methyl)-2-fluorobenzonitrile] showed a Ki of 21 nM. `COc1cccc2c1nc(N)n1nc(Cc3cc(Cl)cc(C#N)c3)cc21` [Ex-62, 3-((5-amino-7-methoxypyrazolo[1,5-c]quinazolin-2-yl)methyl)-5-chlorobenzonitrile] showed a Ki of 134 nM. Work on `COc1cccc2c1nc(N)n1nc(Cc3ccccc3-n3cccn3)cc21` [Ex-63, 2-(2-(1H-pyrazol-1-yl)benzyl)-7-methoxypyrazolo[1,5-c]quinazolin-5-amine] yielded a Ki of 7 nM. In the case of `COc1cccc2c1nc(N)n1nc(Cc3cc(F)ccc3F)cc21` [Ex-64, 2-(2,5-difluorobenzyl)-7-methoxypyrazolo[1,5-c]quinazolin-5-amine], the Ki is reported as 2 nM. `COc1cccc2c1nc(N)n1nc(Cc3cc(F)cc(F)c3)cc21` [Ex-65, 2-(3,5-difluorobenzyl)-7-methoxypyrazolo[1,5-c]quinazolin-5-amine] was tested, and the Ki was 5 nM. Work on `COc1cccc2c1nc(N)n1nc(CN3CCN(c4ccccc4)CC3)cc21` [Ex-66, 7-methoxy-2-((4-phenylpiperazin-1-yl)methyl)pyrazolo [1,5-c]quinazolin-5-amine] yielded a Ki of 145 nM. Work on `COc1cccc2c1nc(N)n1nc(CN3CC(O)C3)cc21` [Ex-67, 1-((5-amino-7-methoxypyrazolo[1,5-c]quinazolin-2-yl)methyl)azetidin-3-ol] yielded a Ki of 473 nM. With `COc1cccc2c1nc(N)n1nc(CN3Cc4ccc(F)cc4C3)cc21` [Ex-68, 2-((5-fluoroisoindolin-2-yl)methyl)-7-methoxypyrazolo[1,5-c]quinazolin-5-amine] the Ki was 24 nM. `COc1cccc2c1nc(N)n1nc(CN3Cc4cccnc4C3)cc21` [Ex-69, 2-((5,7-dihydro-6H-pyrrolo[3,4-b]pyridin-6-yl)methyl)-7-methoxypyrazolo[1,5-c]quinazolin-5-amine] was tested, and the Ki was 14 nM. In the case of `COc1cccc2c1nc(N)n1nc(C(=O)N3CCN(Cc4ccccc4)CC3)cc21` [Ex-71, (5-amino-7-methoxypyrazolo[1,5-c]quinazolin-2-yl)(4-benzylpiperazin-1-yl)methanone], the Ki is reported as 11 nM. In the case of `COc1cccc2c1nc(N)n1nc(C(=O)N3CCCCC3)cc21` [Ex-72, (5-amino-7-methoxypyrazolo[1,5-c]quinazolin-2-yl)(piperidin-1-yl)methanone], the Ki is reported as 37 nM. With `COc1cccc2c1nc(N)n1nc(C(=O)N3CCN(Cc4ccc(F)cc4)CC3)cc21` [Ex-73, (5-amino-7-methoxypyrazolo[1,5c]-quinazolin-2-yl)(4-(4-fluorobenzyl)-piperazin-1-yl)methanone] the Ki was 11 nM. With `COc1cccc2c1nc(N)n1nc(C(=O)N3CCCC3)cc21` [Ex-74, (5-amino-7-methoxypyrazolo[1,5-c]quinazolin-2-yl)(pyrrolidin-1-yl)methanone] the Ki was 5 nM. `COc1cccc2c1nc(N)n1nc(C(=O)N3CCN(C(=O)OC(C)(C)C)CC3)cc21` [Ex-75, tert-butyl 4-(5-amino-7-methoxypyrazolo[1,5-c]quinazoline-2-carbonyl)piperazine-1-carboxylate] gave a Ki of 20 nM. `COc1cccc2c1nc(N)n1nc(C(=O)N3CCNCC3)cc21` [Ex-76, (5-amino-7-methoxypyrazolo[1,5-c]quinazolin-2-yl)(piperazin-1-yl)methanone] was tested, and the Ki was 300 nM. In the case of `COc1cccc2c1nc(N)n1nc(C(=O)NCc3ccc(F)cc3F)cc21` [Ex-77, 5-amino-N-(2,4-difluorobenzyl)-7-methoxypyrazolo[1,5-c]quinazoline-2-carboxamide], the Ki is reported as 2 nM. In the case of `COc1cccc2c1nc(N)n1nc(C(=O)N3CCN(c4ccc(F)cc4F)CC3)cc21` [Ex-78, (5-amino-7-methoxypyrazolo[1,5-c]quinazolin-2-yl)(4-(2,4-difluorophenyl)piperazin-1-yl)methanone], the Ki is reported as 0.3 nM. In the case of `COc1cccc2c1nc(N)n1nc(C(=O)NCc3ccc(Br)cc3F)cc21` [Ex-79, 5-amino-N-(4-bromo-2-fluorobenzyl)-7-methoxypyrazolo[1,5-c]quinazoline-2-carboxamide], the Ki is reported as 1 nM. Work on `COc1cccc2c1nc(N)n1nc(C(=O)Nc3ccccc3)cc21` [Ex-80, 5-amino-7-methoxy-N-phenylpyrazolo[1,5-c]quinazoline-2-carboxamide] yielded a Ki of 3 nM. `COc1cccc2c1nc(N)n1nc(C(=O)N(C)Cc3ccccc3)cc21` [Ex-81, 5-amino-N-benzyl-7-methoxy-N-methylpyrazolo[1,5-c]quinazoline-2-carboxamide] gave a Ki of 4 nM. `COc1cccc2c1nc(N)n1nc(C(=O)N(C)Cc3cccc4cccnc34)cc21` [Ex-82, 5-amino-7-methoxy-N-methyl-N-(quinolin-8-ylmethyl)pyrazolo[1,5-c]quinazoline-2-carboxamide] gave a Ki of 7 nM. In the case of `COc1cccc2c1nc(N)n1nc(C(=O)N3CCC4(CCN(C(=O)OC(C)(C)C)C4)CC3)cc21` [Ex-83, tert-butyl 8-(5-amino-7-methoxy-pyrazolo[1,5-c]quinazoline-2-carbonyl)-2,8-diazaspiro[4.5]decane-2-carboxylate], the Ki is reported as 80 nM. `COc1cccc2c1nc(N)n1nc(C(=O)N3CCC4(CCNC4)CC3)cc21` [Ex-84, (5-amino-7-methoxypyrazolo[1,5-c]quinazolin-2-yl)(2,8-diazaspiro[4.5]decan-8-yl)methanone] gave a Ki of 245 nM. Molecule `COc1cccc2c1nc(N)n1nc(C(=O)N3CCC4(CCN(C(=O)OC(C)(C)C)C4)C3)cc21` (centres unmarked) [Ex-85, tert-butyl 7-(5-amino-7-methoxypyrazolo[1,5-c]quinazoline-2-carbonyl)-2,7-diazaspiro[4.4]nonane-2-carboxylate] has a Ki of 11 nM. `COc1cccc2c1nc(N)n1nc(C(=O)N3CCC4(CCNC4)C3)cc21` (centres unmarked) [Ex-86, (5-amino-7-methoxypyrazolo[1,5-c]quinazolin-2-yl)(2,7-diazaspiro[4.4]nonan-2-yl)methanone] showed a Ki of 77 nM. `COc1cccc2c1nc(N)n1nc(C(=O)N3CCC4(CCN(C(C)=O)C4)C3)cc21` (centres unmarked) [Ex-87, 1-(7-(5-amino-7-methoxypyrazolo[1,5-c]quinazoline-2-carbonyl)-2,7-diazaspiro[4.4]nonan-2-yl)ethan-1-one] was tested, and the Ki was 9 nM. In the case of `COC(=O)N1CCC2(CCN(C(=O)c3cc4c5cccc(OC)c5nc(N)n4n3)C2)C1` (centres unmarked) [Ex-88, methyl 7-(5-amino-7-methoxypyrazolo[1,5-c]quinazoline-2-carbonyl)-2,7-diazaspiro[4.4]nonane-2-carboxylate], the Ki is reported as 7 nM. Molecule `CCN1CCC2(CCN(C(=O)c3cc4c5cccc(OC)c5nc(N)n4n3)C2)C1` (centres unmarked) [Ex-89, (5-amino-7-methoxypyrazolo[1,5-c]quinazolin-2-yl)(7-ethyl-2,7-diazaspiro[4.4]nonan-2-yl)methanone] has a Ki of 43 nM. `COc1cccc2c1nc(N)n1nc(C(=O)N3CCC4(CCN(Cc5ccccc5)C4)C3)cc21` (centres unmarked) [Ex-90, (5-amino-7-methoxypyrazolo[1,5-c]quinazolin-2-yl)(7-benzyl-2,7-diazaspiro[4.4]nonan-2-yl)methanone] was tested, and the Ki was 50 nM. `COc1cccc2c1nc(N)n1nc(C(=O)NCc3cccc4cccnc34)cc21` [Ex-91, 5-amino-7-methoxy-N-(quinolin-8-ylmethyl)pyrazolo[1,5-c]quinazoline-2-carboxamide] showed a Ki of 0.4 nM. `COc1cccc2c1nc(N)n1nc(-c3nc(-c4ccccc4)no3)cc21` [Ex-92, 7-methoxy-2-(3-phenyl-1,2,4-oxadiazol-5-yl)pyrazolo[1,5-c]quinazolin-5-amine] gave a Ki of 101 nM. Work on `COc1cccc2c1nc(N)n1nc(-c3nc(Cc4ccccc4)no3)cc21` [Ex-93, 2-(3-benzyl-1,2,4-oxadiazol-5-yl)-7-methoxypyrazolo[1,5-c]quinazolin-5-amine] yielded a Ki of 45 nM. With `Nc1nc2ccccc2c2cc(Cc3cccc4cccnc34)nn12` [Ex-94, 2-(quinolin-8-ylmethyl)pyrazolo[1,5-c]quinazolin-5-amine] the Ki was 10 nM.

Same assay, conditions: same protocol
`COc1cccc2c1nc(N)n1nc(C(=O)N3CCN(c4ccccn4)CC3)cc21` [Ex-70, (5-amino-7-methoxypyrazolo[1,5-c]quinazolin-2-yl)(4-(pyridin-2-yl)piperazin-1-yl)methanone] gave a Ki of 7 nM.
